Ends that are not written are not given here.

Assay [1] has as its target T1, HEK-293T cells co-expressing D1 and D2 receptors (Homo sapiens, UniProt P14416+P21728).
T1 construct: expressed in transfected cells; host or cells: HEK-293T
Kind of assay: Fluo-4AM fluorescence measurement of intracellular Ca^2+ in HEK-293T cells co-expressing D1 and D2 receptors. It is filed as cell-based. The conditions noted are these: pretreatment 10 μM. The text has this: Fluorescence values were monitored using a PerkinElmer multiwell plated fluorometer, collected at 3-s intervals for 150 s. (A.F.U.: arbitrary fluorescence units).
To investigate the functional implication of the D1-D2 coupling, we examined the ability of this complex to promote Gq/11 signaling as indexed by changes in intracellular Ca^2+ levels^83-85.

For another assay, the system named is D2 receptors. To be noted: rat, in vivo.
For another assay, the system named is D1-D2 coupling. To be noted: rat, in vivo, sc, 10 mg/kg/day.
For a further assay, the system named is D1R. Kind of assay: Western blot of D1R levels in striata of chronically treated rats. The conditions noted are these: rat striata; 10 mg/kg/day subcutaneously for 14 days. In kind it is in vivo. On the technique in general: In western blotting, separated proteins are transferred to a membrane and probed.
The subject of another assay is D2R. Kind of assay: Western blot of D2R levels in striata of chronically treated rats. In kind it is in vivo. To be noted: rat striata; 10 mg/kg/day subcutaneously for 14 days.
Another assay addresses T2, D1 receptors (Rattus norvegicus, UniProt P18901).
T2 construct: D1 receptor was specifically pulled down by GST-D2IL3-L in detergent extracts of rat striatum; from tissue; host or cells: rat striatum, detergent-solubilized
Kind of assay: GST-fusion protein affinity pull-down of D1 receptor from solubilized rat striatum. The conditions noted are these: FIG. 1C-1E. In kind it is binding. The text has this:
(§1) To confirm previous reports of a D1-D2 receptor complex we used rat striata in co-immunoprecipitation (co-IP) experiments. […] In an attempt to define the structural basis for the observed D1-D2 coupling, we carried out affinity purification using GST (glutathione-S-transferase)-fusion proteins encoding the D1CT and the third intracellular loop (D1IL3), since both D1CT: A332-T446 and D1IL3: R219-K272 contain putative consensus sequences for receptor phosphorylation, desensitization and potential binding sites for various proteins important for signalling (e.g. G proteins, NMDA receptor NR1, NR2A subunits)^81-82. […] To locate the interacting site on D2R, GST-fusion proteins encoding IL3 from both the D2 short (D2S) and D2 Long (D2L) (GST-D2IL3-L: K211-Q373, GST-D2IL3-S:K211-[…]) were used in affinity purification assays. […] Since the D2L and D2S are differentiated by the additional 29 amino-acid within the third intracellular loop, the fact that only D2L but not D2S interacts with D1R made us suspect that this specific 29 amino-acid may contain the D1-D2 interacting site.

Another assay addresses T3, D1 tail (Homo sapiens, UniProt P21728).
T3 construct: D1CT A332-T446
T3 sequence (P21728 332-446): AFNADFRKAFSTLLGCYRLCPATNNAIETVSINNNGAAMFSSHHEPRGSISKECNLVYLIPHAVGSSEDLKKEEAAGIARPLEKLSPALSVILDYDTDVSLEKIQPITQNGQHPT
Kind of assay: in vitro binding assay with S^35-D1 tail probe. To be noted: FIG. 1F.
Text: as §1

The target in another assay is T4, D1-D2 interaction (Rattus norvegicus, UniProt P18901).
T4 construct: from tissue; host or cells: rat striatum
T4 sequence (P18901 whole entry): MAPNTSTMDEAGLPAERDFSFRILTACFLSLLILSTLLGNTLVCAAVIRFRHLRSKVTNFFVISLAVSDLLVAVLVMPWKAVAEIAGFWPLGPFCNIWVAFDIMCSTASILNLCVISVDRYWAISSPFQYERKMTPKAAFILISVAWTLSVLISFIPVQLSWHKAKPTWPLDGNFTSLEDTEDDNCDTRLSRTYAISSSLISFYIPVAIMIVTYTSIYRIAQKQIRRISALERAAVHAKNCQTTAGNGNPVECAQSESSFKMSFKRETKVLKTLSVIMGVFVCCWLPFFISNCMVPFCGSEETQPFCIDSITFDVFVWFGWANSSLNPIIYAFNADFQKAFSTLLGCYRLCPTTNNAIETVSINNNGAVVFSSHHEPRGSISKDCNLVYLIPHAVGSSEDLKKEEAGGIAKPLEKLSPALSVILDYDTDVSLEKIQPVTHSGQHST
Kind of assay: competitive co-immunoprecipitation of D1 receptor with D2 receptor in rat striatum. In kind it is binding. The conditions noted are these: preincubation, FIG. 1G.
Text: The ability of D1 receptor to co-immunoprecipitate with D2 receptor is inhibited by the addition of GST-D2IL3-29-2 in a concentration dependent manner;
as §1

T2 sequence (P18901 whole entry): as above
T1 sequence (P21728 whole entry): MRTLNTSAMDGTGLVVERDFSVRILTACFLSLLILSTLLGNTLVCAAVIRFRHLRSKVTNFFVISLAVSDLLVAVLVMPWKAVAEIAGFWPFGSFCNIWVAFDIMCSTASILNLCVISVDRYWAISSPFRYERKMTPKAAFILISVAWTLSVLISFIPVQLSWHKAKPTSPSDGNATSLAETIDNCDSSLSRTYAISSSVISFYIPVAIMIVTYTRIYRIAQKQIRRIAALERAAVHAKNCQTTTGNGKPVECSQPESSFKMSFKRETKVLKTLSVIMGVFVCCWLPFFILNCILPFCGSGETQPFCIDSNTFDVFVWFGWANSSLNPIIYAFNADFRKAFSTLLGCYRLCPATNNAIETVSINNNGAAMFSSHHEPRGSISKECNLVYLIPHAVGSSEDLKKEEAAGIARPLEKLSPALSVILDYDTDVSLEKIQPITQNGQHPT
T1 sequence (P14416 whole entry): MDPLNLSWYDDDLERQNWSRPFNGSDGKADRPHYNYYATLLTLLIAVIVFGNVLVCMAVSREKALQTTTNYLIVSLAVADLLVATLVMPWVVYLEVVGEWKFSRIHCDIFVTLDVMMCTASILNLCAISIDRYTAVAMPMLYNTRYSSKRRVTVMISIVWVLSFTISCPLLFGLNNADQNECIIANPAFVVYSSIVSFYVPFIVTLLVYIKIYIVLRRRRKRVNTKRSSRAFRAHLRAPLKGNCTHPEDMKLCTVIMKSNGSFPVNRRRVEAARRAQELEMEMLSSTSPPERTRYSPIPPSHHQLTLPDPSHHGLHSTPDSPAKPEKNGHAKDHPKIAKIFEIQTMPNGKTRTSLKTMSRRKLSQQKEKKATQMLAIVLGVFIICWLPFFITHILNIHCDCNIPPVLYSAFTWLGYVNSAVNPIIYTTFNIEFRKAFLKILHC

`COc1ccc2c(c1)CC[C@@H]1[C@@H]2CC[C@]2(C)[C@@H](NCCCCCCN3C(=O)C=CC3=O)CC[C@@H]12` [U73122]: in assay [1], the “block of the Ca^2+ increase induced by co-activation with 10 μM SKF81297 and 10 μM quinpirole” value is “inhibited the increase in Ca^2+ levels”.
In the case of `O=C(CCCN1CCC(O)(c2ccc(Cl)cc2)CC1)c1ccc(F)cc1` [haloperidol], the “direct immunoprecipitated D2 receptors” value with D2 receptors is reported as “remain unchanged”.
On to `CN(C)CCCN1c2ccccc2CCc2ccccc21` [imipramine], for which, in the assay on D1-D2 coupling, the “D1-D2 coupling (co-immunoprecipitation)” value is on record as “decrease in D1-D2 coupling”. The “D1R levels (Western blot) vs control rats” value in the assay on D1R is given as “no significant change”. For the same molecule, the “D2R levels (Western blot) vs control rats” value in the assay on D2R is “no significant change”.
For `CCN1CCC[C@H]1CNC(=O)c1c(O)c(Cl)cc(Cl)c1OC` [raclopride], in assay [1], the “block of the Ca^2+ increase induced by co-activation with 10 μM SKF81297 and 10 μM quinpirole” value is given as “blocked”.
For the molecule “GST-D2LIL3-29-1: GST-fusion protein encoding D2LIL3-29-1: G242-V255 (GNCTHPEDMKLCTV; cysteine pairing not given here; also: GST fusion protein)”, in the assay with D1 receptors, the “pull-down of D1 receptors” value is recorded as “not”. The “binding of S^35-D1 tail probe” value with D1 tail is on record as “not”.
As to “GST-D2LIL3-29-2: GST-fusion protein encoding D2LIL3-29-2: I256-V270 (IMKSNGSFPVNRRRV; also: GST fusion protein)”, the “pull-down of D1 receptors” value in the assay with D1 receptors is given as “can successfully pull-down D1R”. For the same molecule, in the assay with D1 tail, the “binding of S^35-D1 tail probe” value was “specifically bound”. In addition, the “inhibition of D1-D2 interaction as indexed by co-immunoprecipitation” value with D1-D2 interaction is “inhibits the D1-D2 interaction as indexed by the co-immunoprecipitation in a concentration dependent manner”.

For the origin of these results see US9266954B2, “Methods for modulating D1-D2 dopamine receptor coupling and function” (Centre for Addiction and Mental Health, priority 2008, dated 2016).
